Active and inactive are the calls of the source. The rule behind the calls is not given here.
How the values were obtained:
Assay type in all cases: functional, cell-based
HeLa C3 [1] = assay: Induction of apoptosis in human HeLaC3 cells assessed as reduction of yellow fluorescent protein/cyan fluorescent protein emission ratio below 3 at 100 uM after 72 hrs by FRET assay
HeLa C3 [2] = assay: Induction of apoptosis in human HeLaC3 cells assessed as reduction of yellow fluorescent protein/cyan fluorescent protein emission ratio below 3 at 25 uM after 72 hrs by FRET assay
HeLa C3 [3] = assay: Induction of apoptosis in human HeLaC3 cells assessed as reduction of yellow fluorescent protein/cyan fluorescent protein emission ratio below 3 at 50 uM after 72 hrs by FRET assay
HeLa C3 [4] = assay: Induction of apoptosis in human HeLaC3 cells assessed as reduction of yellow fluorescent protein/cyan fluorescent protein emission ratio below 3 at 10 uM after 72 hrs by FRET assay
HeLa C3 [5] = assay: Induction of apoptosis in human HeLaC3 cells at < 100 uM after 72 hrs
HeLa C3 [6] = assay: Induction of apoptosis in human HeLaC3 cells assessed as morphological changes at 25 uM after 24 to 72 hrs
HeLa C3 [7] = assay: Induction of apoptosis in human HeLaC3 cells assessed as morphological changes at 500 nM after 24 to 72 hrs
HeLa C3 [8] = assay: Induction of apoptosis in human HeLaC3 cells assessed as reduction of yellow fluorescent protein/cyan fluorescent protein emission ratio below 3 at 25 uM after 24 hrs by FRET assay
HeLa C3 [9] = assay: Induction of apoptosis in human HeLaC3 cells at 50 to 100 uM after 72 hrs
HeLa C3 [10] = assay: Induction of apoptosis in human HeLaC3 cells assessed as reduction of yellow fluorescent protein/cyan fluorescent protein emission ratio below 3 at 25 uM after 48 hrs by FRET assay
HeLa [11] = assay: Induction of apoptosis in human HeLa cells assessed as cleavage of PARP at 25 uM after 12 hrs by Western blotting
HeLa [12] = assay: Induction of apoptosis in human HeLa cells assessed as cleavage of PARP at 25 uM after 36 hrs by Western blotting
HeLa [13] = assay: Cytotoxicity against human HeLa cells after 72 hrs by MTT assay

SMILES	Activity (HeLa C3 [1])	Activity (HeLa C3 [2])	Activity (HeLa C3 [3])	Activity (HeLa C3 [4])	Activity (HeLa C3 [5])	Activity (HeLa C3 [6])	Activity (HeLa C3 [7])	Activity (HeLa C3 [8])	Activity (HeLa C3 [9])	Activity (HeLa C3 [10])	Activity (HeLa [11])	Activity (HeLa [12])	IC50 (HeLa [13]) [µM]
CC(C)=CCc1c(O)cc2oc3ccc(O)cc3c(=O)c2c1O	inactive	inactive	inactive	inactive	Active	–	–	–	–	–	–	–	–
CC(C)=CCc1c(O)cc(O)c2c(=O)c3cc4c(c(O)c3oc12)OC(C)(C)C=C4	Active	Active	Active	inactive	–	Active	–	–	–	–	–	–	–
CC(=O)O[C@H]1C(=O)[C@@]2(C)[C@H]([C@H](OC(=O)c3ccccc3)[C@]3(O)C[C@H](OC(=O)[C@H](O)[C@@H](NC(=O)c4ccccc4)c4ccccc4)C(C)=C1C3(C)C)[C@]1(OC(C)=O)CO[C@@H]1C[C@@H]2O	–	–	–	–	–	–	Active	–	–	–	–	–	–
CC(C)=CCc1cc2c(=O)c3c(O)c(CC=C(C)C)c(O)c(CC=C(C)C)c3oc2c(O)c1O	Active	inactive	Active	inactive	–	–	–	–	–	–	–	–	–
CC1=CCCC(C)(C)C1CCC(C)CCCC(C)CCO (configuration not stated)	inactive	inactive	inactive	inactive	–	–	–	–	–	–	–	–	–
C=C(C)[C@@H]1C[C@]23C[C@H](CC=C(C)C)C(C)(C)[C@](CC=C(C)C)(C(=O)C(C(=O)c4ccc(O)c(O)c4)=C2O[C@H]1C=C(C)C)C3=O	Active	Active	Active	inactive	–	Active	–	Active	–	–	–	–	–
CC1=C(C)C(=O)C(CCC(C)(O)CCCC(C)CCCC(C)CCCC(C)C)=C(C)C1=O (configuration not stated)	inactive	inactive	inactive	inactive	Active	–	–	–	–	–	–	–	–
CC1(C)C=Cc2c(cc3oc4c(O)c(O)ccc4c(=O)c3c2O)O1	Active	Active	inactive	Active	–	Active	–	–	Active	Active	Active	Active	–
CC(C)=CCC/C(C)=C/C[C@H]1C[C@]2(CC=C(C)C)C(=O)[C@@](CC=C(C)C)(C(=O)C(C(=O)c3ccc(O)c(O)c3)=C2O)[C@]1(C)CCC=C(C)C	Active	Active	Active	inactive	–	Active	–	–	–	–	–	–	–
COc1c(O)c(CC=C(C)C)cc2c1Oc1cc(O)c(CC=C(C)C)c(O)c1C(=O)O2 [PAUCINERVIN A]	Active	inactive	inactive	inactive	–	–	–	–	–	–	–	–	95.6
CC(C)=CCC/C(C)=C/CC/C(C)=C/CCC1(C)CCc2c(C)cc(O)c(O)c2O1 (configuration not stated) [PAUCINERVIN D]	Active	inactive	Active	inactive	–	–	–	–	–	–	–	–	29.5
CC(C)=CC[C@H]1C[C@@]23C[C@@H](CC=C(C)C)C(C)(C)[C@@](CC=C(C)C)(C(=O)C(C(=O)c4ccc(O)c(O)c4)=C2OC1(C)C)C3=O	inactive	Active	inactive	inactive	–	Active	–	Active	Active	–	–	–	–
C=CC(C)(C)c1c(OC)c(CC=C(C)C)c(O)c2c(=O)c3ccc(O)c(O)c3oc12	Active	inactive	Active	inactive	–	–	–	–	–	–	–	–	–
C=C(C)[C@H]1C/C=C(\C)CC/C=C(\C)CC/C=C(\C)CC1	Active	inactive	inactive	inactive	–	–	–	–	–	–	–	–	–
CC(C)=CCC/C(C)=C/CC/C(C)=C/CCC1(C)CCc2c(C)ccc(O)c2O1 (configuration not stated)	inactive	inactive	Active	inactive	–	–	–	–	–	–	–	–	–
CC1(C)C=Cc2c(c3ccoc3c3oc4c(O)cccc4c23)O1 [PAUCINERVIN C]	Active	inactive	inactive	inactive	–	–	–	–	–	–	–	–	52.5
COC(=O)c1c(O)cc(O)cc1Oc1c(O)c(OC)cc(CC=C(C)C)c1OC [PAUCINERVIN B]	Active	Active	Active	inactive	–	Active	–	–	–	Active	Active	Active	9.5
